Measurements from patent publication US20240124504A1, “AROMATIC HETEROCYCLIC COMPOUND, AND PHARMACEUTICAL COMPOSITION AND APPLICATION THEREOF” (GT APEIRON THERAPEUTICS LIMITED, priority 2020, published 2024).

Molecular target: CDK7/cyclinH/MAT1 complex (Homo sapiens, UniProt P50613)
Test: In-vitro enzymatic inhibitory activity testing, CDK7 inhibition assay (Caliper EZ Reader II)
Assay type: biochemical
Conditions: CDK7/cyclinH/MAT1 6 nM, 180 min at 27° C.
Procedure: CDK12/CyclinK was diluted in an assay buffer (80 mM MES PH 6.5, 0.01% Tween 20, 50 ug/mL BSA, 10 mM MgCl2) to afford a corresponding enzyme solution with the 2.4 concentration. A compound was dissolved in dimethyl sulfoxide (DMSO) at a concentration of 10 mM. […] 2 ul of a test compound solution was mixed with 5 ul of the enzyme solution; after incubation for 10 min, 5 ul of the polypeptide substrate and ATP mixed solution was added; incubation was carried out for 180 min at 27° C.; and then, the reaction was terminated by adding 4 uL of EDTA with a concentration of 120 mM to each sample. […] A CDK9/cyclinT1 complex (8 nM) and a “5-FAM-CDK9tide” peptide substrate (2 IM, synthetic fluorophore-labeled peptide with the following sequence: 5-FAM-GSRTPMY-NH2, wherein 5-FAM was as defined above and NH2 represented C-terminal amide) were used for a CDK9 inhibition assay. […] A CDK2/cyclinE1 complex (0.5 nM) and “5-FAM-CDK7tide” (2 μM) as defined above were used for CDK2 inhibition assay.
A reaction mixture was analyzed on Caliper EZ Reader II by electrophoretic separation of a fluorogenic substrate and a phosphorylated product. Data were calculated by using GraphPad Prism version 6.0, and IC50 values were adjusted and obtained by using a nonlinear regression model of a dose response curve.

CDK7/cyclinH/MAT1 complex, sequence (P50613 whole entry, species assumed): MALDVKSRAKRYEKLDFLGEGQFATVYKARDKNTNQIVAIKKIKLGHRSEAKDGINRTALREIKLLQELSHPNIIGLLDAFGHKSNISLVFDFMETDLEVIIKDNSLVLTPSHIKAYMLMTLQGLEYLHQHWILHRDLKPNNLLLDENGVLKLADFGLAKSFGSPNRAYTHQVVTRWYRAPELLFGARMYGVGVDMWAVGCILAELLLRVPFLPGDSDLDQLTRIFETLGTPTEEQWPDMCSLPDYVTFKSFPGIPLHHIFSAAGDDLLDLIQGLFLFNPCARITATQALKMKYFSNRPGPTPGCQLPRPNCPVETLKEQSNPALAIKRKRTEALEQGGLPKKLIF
CDK7/cyclinH/MAT1 complex, sequence (P51946 whole entry partner, species assumed): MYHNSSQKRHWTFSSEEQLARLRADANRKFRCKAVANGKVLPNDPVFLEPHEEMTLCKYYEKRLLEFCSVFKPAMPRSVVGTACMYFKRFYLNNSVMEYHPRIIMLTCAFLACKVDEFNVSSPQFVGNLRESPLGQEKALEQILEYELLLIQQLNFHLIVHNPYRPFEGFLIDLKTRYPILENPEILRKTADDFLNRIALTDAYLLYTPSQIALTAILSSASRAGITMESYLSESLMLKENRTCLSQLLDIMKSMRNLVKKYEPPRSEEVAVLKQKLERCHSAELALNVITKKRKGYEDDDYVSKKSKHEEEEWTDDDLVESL
CDK7/cyclinH/MAT1 complex, sequence (P51948 whole entry partner, species assumed): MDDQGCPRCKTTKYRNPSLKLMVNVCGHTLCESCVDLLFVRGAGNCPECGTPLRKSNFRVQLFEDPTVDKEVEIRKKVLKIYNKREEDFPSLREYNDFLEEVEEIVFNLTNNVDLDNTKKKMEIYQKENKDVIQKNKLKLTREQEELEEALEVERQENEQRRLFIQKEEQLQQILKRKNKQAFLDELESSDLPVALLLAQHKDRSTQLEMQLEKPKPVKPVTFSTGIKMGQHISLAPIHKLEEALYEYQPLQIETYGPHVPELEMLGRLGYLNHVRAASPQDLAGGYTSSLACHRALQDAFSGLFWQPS

SMILES | IC50
CP(C)(=O)c1cccc2c(-c3nc(N[C@@H]4CC(F)(F)C[C@@H]4O)ncc3C(F)(F)F)c[nH]c12 (relative stereo) [Compound 187, (3-(2-(cis-4,4-difluoro-2-hydroxycyclopentylamino)-5-(trifluoromethyl)pyrimidin-4-yl)-1H-indole-7-yl)dimethylphosphine oxide] | 20 to 200 nM
CP(C)(=O)c1cccc2c(-c3nc(N[C@@H]4CC(F)(F)C[C@H]4O)ncc3C(F)(F)F)c[nH]c12 (relative stereo) [Compound 188, (3-(2-(trans-4,4-difluoro-2-hydroxycyclopentylamino)-5-(trifluoromethyl)pyrimidin-4-yl)-1H-indole-7-yl)dimethylphosphine oxide] | < 20 nM
C[C@@H](CO)Nc1ncc(C(F)(F)F)c(-c2c[nH]c3nc(C4CCCCO4)ccc23)n1 (single isomer, unassigned) [Compound 183] | 20 to 200 nM
C[C@@H](CO)Nc1ncc(C(F)(F)F)c(-c2c[nH]c3nc(C4CCCCO4)ccc23)n1 (single isomer, unassigned) [Compound 184] | 20 to 200 nM
CP(C)(=O)c1cccc2c(-c3nc(NC4CC(F)(F)CC4O)ncc3C(F)(F)F)c[nH]c12 (single isomer, unassigned) [Compound 189] | 20 to 200 nM
CP(C)(=O)c1cccc2c(-c3nc(NC4CC(F)(F)CC4O)ncc3C(F)(F)F)c[nH]c12 (single isomer, unassigned) [Compound 190] | 20 to 200 nM
CP(C)(=O)c1cccc2c(-c3nc(NC4CCC[C@H]4CN)ncc3C(F)(F)F)c[nH]c12 (stereo in doubt) [Compound 131, (3-(2-((cis-2-(aminomethyl)cyclopentyl)amino)-5-(trifluoromethyl)pyrimidin-4-yl)-1H-indole-7-yl)dimethylphosphine oxide] | < 20 nM
CP(C)(=O)c1cccc2c(-c3nc(NC4CCC[C@@H]4CN)ncc3C(F)(F)F)c[nH]c12 (stereo in doubt) [Compound 132, (3-(2-((trans-2-(aminomethyl)cyclopentyl)amino)-5-(trifluoromethyl)pyrimidin-4-yl)-1H-indole-7-yl)dimethylphosphine oxide] | < 20 nM
CN(C)C[C@@H]1CCCC1Nc1ncc(C(F)(F)F)c(-c2c[nH]c3c(P(C)(C)=O)cccc23)n1 (stereo in doubt) [Compound 133, (3-(2-((cis-2-((dimethylamino)methyl)cyclopentyl)amino)-5-(trifluoromethyl)pyrimidin-4-yl)-1H-indole-7-yl)dimethylphosphine oxide] | < 20 nM
CN(C)C[C@H]1CCCC1Nc1ncc(C(F)(F)F)c(-c2c[nH]c3c(P(C)(C)=O)cccc23)n1 (stereo in doubt) [Compound 134, (3-(2-((trans-2-((dimethylamino)methyl)cyclopentyl)amino)-5-(trifluoromethyl)pyrimidin-4-yl)-1H-indole-7-yl)dimethylphosphine oxide] | < 20 nM
CP(C)(=O)c1cccc2c(-c3nc(NCC4(O)CCCCCC4)ncc3C(F)(F)F)c[nH]c12 [Compound 152] | 20 to 200 nM
CP(C)(=O)c1cccc2c(-c3nc(N[C@H](CO)C4CCCCC4)ncc3C(F)(F)F)c[nH]c12 [Compound 169, (S)-(3-(2-((1-cyclohexyl-2-hydroxyethyl)amino)-5-(trifluoromethyl)pyrimidin-4-yl)-1H-indole-7-yl)dimethylphosphine oxide] | 20 to 200 nM
CCCC[C@H](CO)Nc1ncc(C(F)(F)F)c(-c2c[nH]c3c(P(C)(C)=O)cccc23)n1 [Compound 170, (R)-(3-(2-((1-hydroxyhexan-2-yl)amino)-5-(trifluoromethyl)pyrimidin-4-yl)-1H-indole-7-yl)dimethylphosphine oxide] | 20 to 200 nM
C[C@@H](CO)Nc1ncc(C(F)(F)F)c(-c2n[nH]c3c(P(C)(C)=O)cccc23)n1 [Compound 193, (S)-(3-(2-((1-hydroxypropan-2-yl)amino)-5-(trifluoromethyl)pyrimidin-4-yl)-1H-indazol-7-yl)dimethylphosphine oxide] | 20 to 200 nM
